The results in this text go back to US10167279B2 (NOVARTIS AG, priority 2014, dated 2019).

The target in one experiment is b-Raf (V600E) (Homo sapiens (Human), UniProt P15056, V600E). Kind of experiment: In vitro Raf activity determination (Alpha Screen, phospho-MEK), b-Raf (V600E). The format is biochemical. To be noted: ATP 10 μM, 60 min pre-incubation, 3 hours reaction.
Another experiment addresses C-Raf FL (Homo sapiens (Human), UniProt P04049, Y340E/Y341E). Kind of experiment: In vitro Raf activity determination (Alpha Screen, phospho-MEK), C-Raf FL (full length, Y340E/Y341E). Format: biochemical. To be noted: ATP 1 μM; 60 min pre-incubation; 1 hour reaction; column head does not say FL or TR. The method, boiled down: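 Sf9-expressed C-Raf incubated with biotinylated kinase-dead MEK1 (K97R) in 50 mM Tris pH 7.5, 15 mM MgCl2, 0.01% BSA, 1 mM DTT with compound, 60 min at room temperature. Phospho-MEK detected by anti-p-MEK AlphaScreen luminescence; IC50 by non-linear regression.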

b-Raf (V600E), sequence (P15056 whole entry V600E): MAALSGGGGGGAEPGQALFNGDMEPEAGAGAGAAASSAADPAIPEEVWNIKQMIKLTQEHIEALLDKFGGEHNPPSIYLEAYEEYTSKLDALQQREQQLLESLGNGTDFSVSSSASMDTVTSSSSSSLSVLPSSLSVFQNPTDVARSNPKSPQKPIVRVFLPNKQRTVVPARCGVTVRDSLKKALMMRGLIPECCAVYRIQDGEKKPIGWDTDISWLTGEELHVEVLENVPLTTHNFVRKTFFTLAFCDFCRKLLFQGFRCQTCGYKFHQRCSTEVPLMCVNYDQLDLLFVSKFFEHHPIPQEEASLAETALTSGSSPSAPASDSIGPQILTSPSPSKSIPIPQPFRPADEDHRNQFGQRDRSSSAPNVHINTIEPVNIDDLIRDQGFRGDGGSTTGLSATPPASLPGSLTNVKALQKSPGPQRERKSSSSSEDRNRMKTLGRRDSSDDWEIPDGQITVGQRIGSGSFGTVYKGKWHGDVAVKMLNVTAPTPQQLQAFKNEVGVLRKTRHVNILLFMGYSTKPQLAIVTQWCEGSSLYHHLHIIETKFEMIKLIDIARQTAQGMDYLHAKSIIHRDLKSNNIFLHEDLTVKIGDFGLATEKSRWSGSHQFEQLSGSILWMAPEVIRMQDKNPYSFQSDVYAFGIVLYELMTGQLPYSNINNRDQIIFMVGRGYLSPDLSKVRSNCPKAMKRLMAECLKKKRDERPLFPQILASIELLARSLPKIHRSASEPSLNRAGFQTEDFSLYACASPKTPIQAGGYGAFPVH
C-Raf FL, sequence (P04049 whole entry Y340E/Y341E): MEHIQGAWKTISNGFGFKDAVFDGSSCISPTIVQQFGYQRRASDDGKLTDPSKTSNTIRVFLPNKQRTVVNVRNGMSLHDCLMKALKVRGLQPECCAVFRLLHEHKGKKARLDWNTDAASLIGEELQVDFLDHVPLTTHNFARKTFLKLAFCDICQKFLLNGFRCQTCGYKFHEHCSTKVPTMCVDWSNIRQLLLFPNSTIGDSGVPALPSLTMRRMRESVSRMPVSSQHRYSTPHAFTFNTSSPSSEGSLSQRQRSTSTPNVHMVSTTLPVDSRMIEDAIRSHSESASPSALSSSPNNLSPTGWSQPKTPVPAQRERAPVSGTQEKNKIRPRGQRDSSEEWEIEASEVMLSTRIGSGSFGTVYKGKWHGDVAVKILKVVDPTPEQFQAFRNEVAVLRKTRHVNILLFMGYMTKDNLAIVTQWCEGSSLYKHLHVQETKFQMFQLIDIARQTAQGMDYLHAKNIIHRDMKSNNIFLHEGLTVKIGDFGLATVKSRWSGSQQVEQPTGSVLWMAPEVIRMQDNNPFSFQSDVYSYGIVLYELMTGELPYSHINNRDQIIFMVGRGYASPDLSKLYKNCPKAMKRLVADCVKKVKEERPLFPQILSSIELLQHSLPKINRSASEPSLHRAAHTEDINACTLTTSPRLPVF
C-Raf FL, sequence (P63104 whole entry partner): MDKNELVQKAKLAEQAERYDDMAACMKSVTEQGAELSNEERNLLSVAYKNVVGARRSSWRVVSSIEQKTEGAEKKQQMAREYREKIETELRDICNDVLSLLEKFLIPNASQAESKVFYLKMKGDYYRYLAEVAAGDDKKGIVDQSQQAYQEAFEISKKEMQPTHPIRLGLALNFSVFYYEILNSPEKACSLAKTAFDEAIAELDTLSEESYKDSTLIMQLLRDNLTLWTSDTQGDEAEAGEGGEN

As to `CCOc1ncc(-c2cc(NC(=O)c3ccnc(C(C)(F)F)c3)ccc2C)cc1C1(O)COC1` [Example 123, 2-(1,1-difluoroethyl)-N-(3-(6-ethoxy-5-(3-hydroxyoxetan-3-yl)pyridin-3-yl)-4-methylphenyl)isonicotin-amide], the IC50 came to 1.22 nM at b-Raf (V600E) and 0.165 nM at C-Raf FL.

For the compound `COc1ncc(-c2cc(NC(=O)c3cc(C(C)(C)N)cc(C(F)(F)F)c3)ccc2C)cc1C1(C(F)F)COC1` [Example 112, 3-(2-aminopropan-2-yl)-N-(3-(5-(3-(difluoromethyl)oxetan-3-yl)-6-methoxypyridin-3-yl)-4-methylphenyl)-5-(trifluoromethyl)benzamide], the IC50 against b-Raf (V600E) came to 1.21 nM; at C-Raf FL it was 0.225 nM.

`COc1ncc(-c2cc(NC(=O)c3ccnc(C(C)(F)F)c3)cnc2C)cc1C1(C#N)COC1` [Example 116, N-(5′-(3-cyanooxetan-3-yl)-6′-methoxy-2-methyl-[3,3′-bipyridin]-5-yl)-2-(1,1-difluoroethyl)isonicotin-amide]: the IC50 at b-Raf (V600E) worked out at 6.22 nM; on C-Raf FL it was 1.25 nM.

For `COc1ncc(-c2cc(NC(=O)c3cc(C(C)(C)F)ccn3)cnc2C)cc1C1(O)COC1` [Example 94, 4-(2-fluoropropan-2-yl)-N-(5′-(3-hydroxyoxetan-3-yl)-6′-methoxy-2-methyl-[3,3′-bipyridin]-5-yl)picolinamide], the IC50 at b-Raf (V600E) is 31.8 nM; against C-Raf FL, 4.24 nM.

As to `Cc1ccc(NC(=O)c2ccnc(C(C)(C)C#N)c2)cc1-c1cccc(C2COC2)c1` [Example 28, 2-(2-cyanopropan-2-yl)-N-(6-methyl-3′-(oxetan-3-yl)-[1,1′-biphenyl]-3-yl)isonicotinamide], the IC50 against b-Raf (V600E) and against C-Raf FL was 25000 nM throughout.

Take `Cc1ccc(NC(=O)c2ccnc(C(C)(C)F)c2)cc1-c1cc(C2COC2)c(=O)n(C)c1` [Example 110, 2-(2-fluoropropan-2-yl)-N-(4-methyl-3-(1-methyl-5-(oxetan-3-yl)-6-oxo-1,6-dihydropyridin-3-yl)phenyl)isonicotinamide]: the IC50 against b-Raf (V600E) worked out at 9.98 nM; at C-Raf FL, 1.52 nM.

Consider `COc1ncc(-c2cc(C(=O)Nc3cccc(C(C)(C)C#N)c3)ccc2C)cc1C1(O)COC1` [Example 146, N-(3-(2-cyanopropan-2-yl)phenyl)-3-(5-(3-hydroxyoxetan-3-yl)-6-methoxypyridin-3-yl)-4-methylbenzamide], for which the IC50 is 3.31 nM on b-Raf (V600E) and 0.801 nM against C-Raf FL.

As to `COc1ncc(-c2cc(NC(=O)c3cc(C(C)(C)N)cc(C(F)(F)F)c3)cnc2C)cc1C1(CF)COC1` [Example 109, 3-(2-aminopropan-2-yl)-N-(5′-(3-(fluoromethyl)oxetan-3-yl)-6′-methoxy-2-methyl-[3,3′-bipyridin]-5-yl)-5-(trifluoromethyl)benzamide], the IC50 against b-Raf (V600E) was determined as 9.5 nM; at C-Raf FL it was 2.24 nM.

Take `COc1ncc(-c2cc(NC(=O)c3cc(C(C)(C)N)cc(C(F)(F)F)c3)ccc2C)cc1C1(CF)COC1` [Example 108, 3-(2-aminopropan-2-yl)-N-(3-(5-(3-(fluoromethyl)oxetan-3-yl)-6-methoxypyridin-3-yl)-4-methylphenyl)-5-(trifluoromethyl)benzamide]: the values for the IC50 at b-Raf (V600E) and against C-Raf FL were 1.8 nM and 0.424 nM, respectively.

Take `COc1ncc(-c2cc(NC(=O)c3cc(C(C)(C)C#N)ccn3)cnc2C)cc1C1(F)COC1` [Example 86, 4-(2-cyanopropan-2-yl)-N-(5′-(3-fluorooxetan-3-yl)-6′-methoxy-2-methyl-[3,3′-bipyridin]-5-yl)picolinamide]: the values for the IC50 against b-Raf (V600E) and at C-Raf FL were 14.7 nM and 2.33 nM, respectively.

The term IC50 denotes the concentration at which inhibition is half-maximal.
